In paper PMC12363518, “Azobenzene-Modified Temperature-Responsive Short Elastin-like Peptides for Photo-Controlled Phase Transition” (ACS Synthetic Biology, 2025):
Numbered stars: 1 amine (or outer) side, 2 acyl side, 3 side chain; on linkers, the order of the positions; unused ones are H or OH. Bridge positions count the residues as written; N and C are the ends. Square brackets hold non-standard residues; d marks the D form. Peptide text beside a SMILES is read from it. I, II: the chains in the order shown. X1 = O=C(c1ccc(N=Nc2ccc(C(=O)[*:2])cc2)cc1)[*:1]; X2 = O=C(c1ccc(N=Nc2ccc(N[*:1])cc2)cc1)[*:2]; X3 = c1cc(N[*:1])ccc1N=Nc1ccc(N[*:2])cc1

Assays:
[1] = not given; remark: listed apart in the source
[2] = Turbidity measurement (OD600) of temperature-dependent phase separation, Tt; format: physicochemical; details: even at 2.38 mM (5.00 mg/mL) in PBS; turbidity OD600
Procedure: The ability of the ELP–azobenzene conjugates to self-assemble was investigated by using turbidity measurements. In addition, we evaluated whether the photoisomerization of the azobenzene moieties induced differences in the aggregation ability of these analogues. Each peptide analogue was dissolved in PBS at different concentrations according to its water solubility. To quantitatively evaluate the aggregation ability, the transition temperature (T t) of the peptides was calculated from the change in optical density at a wavelength of 600 nm (OD600) associated with the increasing temperature (Table and Figure ).
The temperature-dependent self-assembly property of synthesized peptides was evaluated by using a JASCO V-660 spectral photometer (JASCO Co.). Each peptide was dissolved in PBS buffer or phosphate buffer solutions at various concentrations. Three types of phosphate buffers with the same ionic strength (μ = 0.100) but different pH (pH 7.4, 2.1, and 11.5) were prepared: phosphate buffer (pH 7.4, 29.4 mM Na2HPO4, 11.7 mM NaH2PO4), phosphate buffer (pH 2.1, 10.0 mM NaH2PO4, 10.5 mM phosphoric acid), and phosphate buffer (pH 11.5, 9.58 mM Na3PO4, 14.2 mM Na2HPO4). Turbidity was measured at 600 nm with increasing or decreasing temperature at a rate of 0.5 °C/min from 5 °C. The measurements were performed for the dark-adapted solution and after successive irradiation with UV light, visible light, and UV light. Each assay was repeated three times with different peptide solutions that were prepared separately. The phase separation property was described by the phase transition temperature (T t), which is the temperature at which the turbidity of the solution reaches half its maximum value.

[3] = Particle size distribution by dynamic light scattering (DLS); format: physicochemical; details: PBS
[4] = Water solubility (observation); format: physicochemical; details: qualitative observation

`CC(C)[C@H](NC(=O)CNC(=O)[C@@H]1CCCN1C(=O)[C@H](Cc1ccccc1)NC(=O)CNC(=O)[C@@H](NC(=O)CNC(=O)[C@@H]1CCCN1C(=O)[C@@H](N)Cc1ccccc1)C(C)C)C(=O)NCC(=O)N[C@@H](CC(=O)O)C(=O)Nc1ccc(N=Nc2ccc(NC(=O)[C@H](CC(=O)O)NC(=O)CNC(=O)[C@@H](NC(=O)CNC(=O)[C@@H]3CCCN3C(=O)[C@H](Cc3ccccc3)NC(=O)CNC(=O)[C@@H](NC(=O)CNC(=O)[C@@H]3CCCN3C(=O)[C@@H](N)Cc3ccccc3)C(C)C)C(C)C)cc2)cc1` (I: H-FPGVGFPGVGD / II: H-FPGVGFPGVGD; linker I:C-II:C via X3) gave a peak wavelength n–π* of 450 nm and a peak wavelength π–π* [1] of 364 nm.

With `CC(C)[C@H](NC(=O)CNC(=O)[C@@H]1CCCN1C(=O)[C@H](Cc1ccccc1)NC(=O)CNC(=O)[C@@H](NC(=O)CNC(=O)[C@@H]1CCCN1C(=O)[C@H](Cc1ccccc1)NC(=O)c1ccc(N=Nc2ccc(C(=O)N[C@@H](Cc3ccccc3)C(=O)N3CCC[C@H]3C(=O)NCC(=O)N[C@H](C(=O)NCC(=O)N[C@@H](Cc3ccccc3)C(=O)N3CCC[C@H]3C(=O)NCC(=O)N[C@H](C(=O)NCC(=O)O)C(C)C)C(C)C)cc2)cc1)C(C)C)C(=O)NCC(=O)O` [Azb-2(F2)] (I: FPGVGFPGVG-OH / II: FPGVGFPGVG-OH; linker I:N-II:N via X1) the “phase separation in PBS” value [2] was “did not exhibit phase separation” and the “self-assembly in dark-adapted solution (DLS)” value [3] was “did not exhibit self-assembly”.

For `CC(C)[C@H](NC(=O)CNC(=O)[C@@H]1CCCN1C(=O)[C@H](Cc1ccccc1)NC(=O)CNC(=O)[C@@H](NC(=O)CNC(=O)[C@@H]1CCCN1C(=O)[C@H](Cc1ccccc1)NC(=O)c1ccc(N=Nc2ccc(NC(=O)CNC(=O)[C@@H](NC(=O)CNC(=O)[C@@H]3CCCN3C(=O)[C@H](Cc3ccccc3)NC(=O)CNC(=O)[C@@H](NC(=O)CNC(=O)[C@@H]3CCCN3C(=O)[C@@H](N)Cc3ccccc3)C(C)C)C(C)C)cc2)cc1)C(C)C)C(=O)NCC(N)=O` [F2-Azb-F2-NH2] (H-FPGVGFPGVG[X2]FPGVGFPGVG-NH2), the water solubility [4] was “low water solubility”, the peak wavelength n–π* was 450 nm and the peak wavelength π–π* [1] was 356 nm.

In the case of `CC(C)[C@H](NC(=O)CNC(=O)[C@@H]1CCCN1C(=O)[C@H](Cc1ccccc1)NC(=O)CNC(=O)[C@@H](NC(=O)CNC(=O)[C@@H]1CCCN1C(=O)[C@H](Cc1ccccc1)NC(=O)c1ccc(N=Nc2ccc(NC(=O)CNC(=O)[C@@H](NC(=O)CNC(=O)[C@@H]3CCCN3C(=O)[C@H](Cc3ccccc3)NC(=O)CNC(=O)[C@@H](NC(=O)CNC(=O)[C@@H]3CCCN3C(=O)[C@@H](N)Cc3ccccc3)C(C)C)C(C)C)cc2)cc1)C(C)C)C(=O)NCC(=O)O` [F2-Azb-F2] (H-FPGVGFPGVG[X2]FPGVGFPGVG-OH), the water solubility [4] was “low water solubility”, the peak wavelength n–π* was 444 nm and the peak wavelength π–π* [1] was 354 nm.
